Where no end group is shown, it is not given here.
What was measured:
FOXO4 foci = test: Immunofluorescence / quantitative imaging of FOXO4 foci; type: cell-based, human
Procedure: For all immunofluorescence experiments, cells were plated in 96-well plates (Cellvis P96-1.5P). At the end of each experiment, cells were washed once with PBS and then fixed with 4% paraformaldehyde for 10 minutes at room temperature. For experiments with caspase-3/7 staining, the Caspase-3/7 reagent (Thermo Scientific Cat# C10723) was added to live cells for 30 minutes prior to fixation. Fixed cells were washed with PBS and then permeabilized with ice-cold methanol at 4°C for 10 minutes. Cells were washed with PBS and then blocked for 30 minutes with 1% Bovine Serum Albumin (BSA) in PBS. […]
Quantitative imaging was performed as described with the following exceptions. […] Quantification of fluorescence intensities was performed using CellProfiler. Briefly, the DAPI staining was used to create a nuclear mask, and fluorescence intensities of the stained markers (FOXO4, CDKN2A, CDKN1A, and TP53) and FOXO4 foci were measured within the nuclear mask. DAPI fluorescence intensity was also quantified and used for DNA content measurements. […]

FOXO4-TP53 interaction = test: Co-immunoprecipitation of Myc-FOXO4 for p53; type: cell-based, human; conditions: senescent HCT116-Myc-FOXO4 cells, 8 µM ES2, 1 hour
Procedure: HCT116 cells were transduced with FOXO4 (NM_005938) human tagged ORF Lentiviral Particles (Origene, Cat# RC213185L1V) at 10^6 TU/mL. Cells were then cultured for seven passages. HCT116-Myc-FOXO4 were made senescent using 200 nM Doxorubicin at the final cell concentration of 24 million cells. Dividing cells were plated at concentration of 80 million cells. The following day, cells were treated with 8 µM ES2 for 0 or 1 hour. Nuclear protein was then isolated using NE-PER™ Nuclear and Cytoplasmic Extraction Reagents kit (Cat# 78833) then quantified via Pierce^TM BCA Protein Assay Kit (Cat# 23225) according to manufacturer's instructions. 400 µg of each nuclear lysate and 10 µL of provided positive control was used in the Thermo Scientific™ Pierce™ c-Myc-Tag IP/Co-IP Kit (Cat# 23620). The eluted protein (20 µL) was then loaded onto Bolt™ 4 to 12%, Bis-Tris, 1.0 mm, Mini Protein Gel, 10-well (Cat# NW04120BOX) and run at 120V for 60 minutes in 1X Invitrogen™ Bolt™ MOPS SDS Running Buffer using the Mini Gel Tank (Cat. A25977). Protein was then transferred onto 0.4 µm PVDF according to manufacturer protocol. The membrane was then blocked in 5% non-fat milk in 1x TBS-T (Cat# 03-500-537) for 60 minutes. […]

PRKGGRRRRAWGRRRRRRRRRRRRRRAPRKRLTLA [ES2]
concentration at which accumulation, co-localization with FOXO4 and disruption of focus formation observed (FOXO4 foci; BODIPY-labelled ES2, A375 cells, 2 h): ≥ 8 µM | FOXO4 foci after ES2 addition (FOXO4 foci; senescent A375 cells, ES2 8 µM for 4 h): caused a loss of FOXO4 foci | TP53 band co-immunoprecipitated with Myc-FOXO4 (FOXO4-TP53 interaction): a band at 53kDa that is eliminated after treating with ES2

— article PMC8546421, “Molecular modelling of the FOXO4-TP53 interaction to design senolytic peptides for the elimination of senescent cancer cells” (EBioMedicine, 2021)
